Patent publication US8541458B2, “Oxabicycloheptanes and oxabicycloheptenes, their preparation and use” (Lixte Biotechnology, Inc., priority 2008, dated 2013)
Structures can show the parent of a compound that is named as a salt.

Experiments:
Akt = Akt phosphorylation after intraperitoneal administration to mice; type: in vivo; conditions: given intraperitoneally to normal mice
Text: The compounds described herein increase the phosphorylation of several regulatory proteins including Akt. At low doses that are non-toxic to mice, these compounds slightly stimulate cell proliferation and increase phosphorylation of Akt in human cancer cells lines tested, including SH-SY5Y.
The mechanism by which the compounds described herein exert their neuroprotective effect may be by increasing the intra-neuronal cell activity of Akt-1 and enhancing the acetylation of neuronal histones. Each of these compounds when given by intraperitoneal injection increase Akt phosphorylation in mouse neurons. This increase in Aky phosphorylation is associated with an increase in the phosphorylation of GSK-3β. Because increased phosphorylation of GSK-3β is known to decrease its activity, chronic suppression of GSK 3β by the compounds described herein may reduce tau phosphorylation. Reduction in tau phosphorylation reduces the formation of paired helical filaments, an intervention that should lessen the progression of tauopathies, including Alzheimer's disease, Parkinson's disease, amyotrophic lateral sclerosis, and other rarer neurodegenerative diseases characterized by abnormal depositions of tau molecules.

[1] = system: Human Medulloblastoma DAOY cells; assay: DAOY xenografts implanted subcutaneously in SCID mice, tumor volume; type: in vivo; conditions: subcutaneous DAOY xenografts, 0.12 mg and 0.18 mg doses, two weeks of treatment, vs vehicle (PBS)
Protocol: (§1) Medulloblastoma DAOY cells were implanted subcutaneously in the flanks of SCID mice. After 7 days when the implanted tumor cells reached a mass with the average diameter of 6 mm, 6 animals received 0.12 mg of Compound 110, 6 animals received 0.18 mg of Compound 110, and 6 animals, received vehicle (PBS) only. After two weeks of treatment all animals were sacrificed, the subcutaneous tumor masses resected, and their volumes calculated.
as §1, with “Human Medulloblastoma” for “Medulloblastoma”, “animals” for “animals,”, “treatment,” for “treatment”

[2] = system: glioblastoma multiforme cells of line U373; assay: Inhibition of growth of glioblastoma multiforme cells, 7 days exposure; type: cell-based
Protocol: Inhibition of growth of glioblastoma multiforme cells of line U373 by exposure for 7 days to increasing concentrations of compound 109 compared to 10 uM compound 100.
Inhibition of growth of glioblastoma multiforme cells of line U373 by exposure for 7 days to increasing concentrations of compound 110 compared to 10 uM compound 100.
Inhibition of growth of glioblastoma multiforme cells of line […] by exposure for 7 days to increasing concentrations of compound 113 compared to 10 uM compound 100.
Inhibition of Growth of Glioblastoma Multiforme Cells of Line […] by Exposure for 7 Days to Increasing Concentrations of Compound 109, 110, 112, and 113

[3] = increasing concentrations, 7 days exposure

## O=C(O)C1C2CCC(O2)C1C(=O)NCCN1C(=O)NC(c2ccccc2)(c2ccccc2)C1=O (centres unmarked) [Compound 114, 3-[2-(2,5-Dioxo-4,4-diphenyl-imidazolidin-1-yl)-ethylcarbamoyl]-7-oxa-bicyclo(2.2.1]heptane-2-carboxylic acid]
Entry into the brain
  entry into the brain: properties that enhance their entry into the brain

## CN1CCN(C(=O)C2C3CCC(O3)C2C(=O)Oc2ccc(CC(N)C(=O)O)cc2)CC1 (centres unmarked) [Compound 110, 3-(4-Methylpiperazine-1-carbonyl)-7-oxa-bicyclo[2,2,1]heptane-2-carboxylic acid 4-(2-amino-2-carboxyethyl)-phenyl ester hydrochloride salt]
Akt
  Akt phosphorylation: increased Akt phosphorylation
[1]
  inhibition of tumor growth (tumor volume): significant inhibition of tumor growth
[2]; [3]
  inhibition of cell growth: inhibited cell growth in a dose dependent manner
Entry into the brain
  entry into the brain: properties that enhance their entry into the brain

## CN1CCN(C(=O)C2C3CCC(O3)C2C(=O)OCC(Cl)(Cl)Cl)CC1 (centres unmarked) [Compound 113, 3-(4-Methyl-piperazine-1-carbonyl)-7-oxa-bicylco[2,2,1]heptane-2-carboxylic acid 2,2,2-trichloroethyl ester]
Akt
  Akt phosphorylation: increased Akt phosphorylation
[2]; [3]
  inhibition of cell growth: inhibited cell growth in a dose dependent manner
Entry into the brain
  entry into the brain: properties that enhance their entry into the brain

## O=C(OCc1ccccc1)C1C2CCC(O2)C1C(=O)N1CCN(CCO)CC1 (centres unmarked) [Compound 109, 3-[4-(2-Hydroxyethyl)-piperazine-1-carbonyl]-7-oxa-bicyclo[2.2.1]heptane-2-carboxylic acid benzyl ester]
[2]; highest concentrations, after 3 day
  inhibition of cell growth: slight inhibition of cell growth
[2]; lower concentrations, increasing over 7 days
  stimulation of cell growth: slight stimulatory activity

## CN1CCN(C(=O)C2C3CCC(O3)C2C(=O)Oc2ccc(CC(N)C(=O)O)cc2)CC1 (centres unmarked) (as salt: hydrochloride) [Compound 110, 3-(4-Methylpiperazine-1-carbonyl)-7-oxa-bicyclo[2,2,1]heptane-2-carboxylic acid 4-(2-amino-2-carboxyethyl)-phenyl ester hydrochloride salt]
other
  melting point: 110 °C (dec.)

## CN1CCN(C(=O)C2C3CCC(O3)C2C(=O)Oc2ccc(CC(NC(=O)OC(C)(C)C)C(=O)O)cc2)CC1 (centres unmarked) [Compound 112, 3-(4-Methylpiperazine-1-carbonyl)-7-oxa-bicyclo[2,2,1]heptane-2-carboxylic acid 4-(2-tert-butoxycarbonylamino-2-carboxyethyl)-phenyl ester]
other
  melting point: 165 °C (dec.)
[2]; [3]
  inhibition of cell growth: inhibited cell growth in a dose dependent manner
Entry into the brain
  entry into the brain: properties that enhance their entry into the brain
